From patent publication US6395909B1, “Substituted benzopyran derivatives and their use as anticonvulsants” (priority 1998, dated 2002)

What was measured:
[1] = test system: electrically-induced seizures; assay: Maximal electroshock seizure threshold (MEST) test; assay type: in vivo; settings: rat, intravenous route, solution in 20% PEG, 1 mg/kg, tested 30 min post dosing
Experimental: The maximal electroshock seizure threshold (MEST) test in rodents is particularly sensitive for detecting potential anticonvulsant properties^1. In this model, anticonvulsant agents elevate the threshold to electrically-induced seizures whilst proconvulsants lower the seizure threshold. Rats (naive male, Charles River, U.K. Sprague Dawley strain, 100-150 g) are randomly assigned to groups of 10-20 and dosed orally, intravenously or intraperitoneally at a dose volume of 1 ml/kg with various doses of compound (0.1-300 mg/kg) or vehicle. […] The mean current and standard error required to induce a tonic seizure in 50% (CC50) of the rats in a particular treatment group is determined by the ‘up and down’ method of Dixon and Mood (1948)^2. Statistical comparisons between vehicle- and drug-treated groups are made using the method of Litchfield and Wilcoxon (1949)^3. In control animals the CC50 is usually 20-30 mA. […] If a tonic convulsion does occur, then the current is decreased, and so on until all the animals in the group have been tested. The percentage increase or decrease in CC50 for each group compared to the control is calculated. Studies are carried out using a Hugo Sachs Electronik Constant Current Shock Generator with totally variable control of shock level from 0 to 300 mA and steps of 5-20 mA are usually used. […]

[2] = target: novel receptor obtainable from rat forebrain tissue; assay: Radioligand binding assay, [3H]-Compound A displacement in rat forebrain tissue; settings: competition with [3H]-Compound A (usually 20 nM)
Experimental: WO 92/22293 (SmithKline Beecham) discloses compounds having anti-convulsant activity, including inter alia the compound (3R, 4S)-6-acetyl-(4-fluorobenzoylamino)-3,4-dihydro-2,2-dimethyl-2H-1-benzopyran-3-ol (hereinafter referred to as Compound A). […] The affinity of test compounds to the novel receptor site is assessed as follows.
Whole forebrain tissue is obtained from rats. The tissue is first homogenised in buffer (usually 50 mM Tris/HCl, pH 7.4). The homogenised tissue is washed by centrifugation and resuspension in the same buffer, then stored at −70° C. until used.
To carry out the radioligand binding assay, aliquots of tissue prepared as above (usually at a concentration of 1-2 mg protein/ml) are mixed with aliquots of [3H]-Compound A dissolved in buffer. The final concentration of [3H]-Compound A in the mixture is usually 20 nM. The mixture is incubated at room temperature for 1 hour. [3H]-Compound A bound to the tissue is then separated from unbound [3H]-Compound A by filtration through Whatman GF/B glass fibre filters. The filters are then washed rapidly with ice-cold buffer. The amount of radioactivity bound to the tissue trapped on the filters is measured by addition of liquid scintillation cocktail to the filters followed by counting in a liquid scintillation counter. […]

SMILES | melting point | increase in seizure threshold relative to control [1] | pKi value [2]
CC1(C)Oc2ccc(C(=O)CO)cc2[C@H](NC(=O)c2ccc(F)cc2)[C@H]1O [Example 3, (3R,4S)-4-(4-fluorobenzamido)-3,4-dihydro-2,2-dimethyl-3-hydroxy-6-(2-hydroxyacetyl)-2H-1-benzopyran] | 216 °C | – | –
CC1(C)Oc2ccc(C(=O)CO)cc2[C@H](NC(=O)c2cc(F)cc(F)c2)[C@H]1O [Example 1, (3R,4S)-4-(3,5-difluorobenzamido)-3,4-dihydro-2,2-dimethyl-3-hydroxy-6-(2-hydroxyacetyl)-2H-1-benzopyran] | 179.4 °C | 317% | 7.35
